Where “and” joins values, the source holds several entries; their conditions need not be identical. Equal values may be shown once. Entries after “also recorded” stand apart in the source; their conditions may differ. Read-outs that look alike come from different tables or passages of the source.
Experiments:
[1] = target: YwfG28–270 (L-type lectin domain of YwfG) (Lactococcus lactis subsp. lactis, UniProt S6FKX6); assay: Isothermal titration calorimetry (ITC) of sugars, mannan and mannoproteins against YwfG28–270; type: binding, Lactococcus lactis subsp. lactis G50; details: for Interaction with YwfG28–270 observed by ITC: 100 μM YwfG28–270, 25°C; for ΔH, enthalpy change / ΔS, entropy change: YwfG28–270
Excerpt: (§1) A MicroCal iTC200 system (Malvern Panalytical, Almelo, Netherlands) was used to measure enthalpy changes associated with interactions between the YwfG variants and the following yeast cell-wall components: the monosaccharides D-glucose, D-galactose, D-mannose, D-fucose, N-acetyl-D-glucosamine (GlcNAc), and 2-(acetylamino)-2-deoxy-D-galactose (GalNAc) (Sigma-Aldrich); α-1,2-, α-1,3-, α-1,4-, and α-1,6-mannobiose (Dextra Laboratories, Reading, UK); mannan from S. cerevisiae (Sigma-Aldrich); and yeast mannoproteins.
(§2) A solution of YwfG variant (100 μM YwfG28–270, YwfG28–336, YwfG28–511, or MubR4 in 20 mM Tris-HCl [pH 7.5]) was placed in a 200-μL calorimeter cell, and test solution (10 mM for monosaccharides, 2 mM for monosaccharides and mannobioses, 10 mg mL^−1 for yeast mannan, OD280 1.0 for mannoproteins) was loaded into the injection syringe. The test solution was titrated into the sample cell as a sequence of 20 injections of 2-μL aliquots each. All experiments were performed at 25°C.

YwfG28–336 = assay: ITC of sugars against YwfG28–336; type: binding, Lactococcus lactis subsp. lactis G50; details: 100 μM YwfG28–336, 25°C
Excerpt: as §1, §2

YwfG28–511 = assay: ITC of sugars against YwfG28–511; type: binding, Lactococcus lactis subsp. lactis G50; details: 100 μM YwfG28–511, 25°C
Excerpt: as §1, §2

[2] = system: MubR4 (YwfG residues 860–1034); assay: ITC of monosaccharides against MubR4; type: binding, Lactococcus lactis subsp. lactis G50; details: 100 μM MubR4, 25°C
Excerpt: as §1, §2

yeast X2180-1A = assay: Inhibition by sugars of yeast cell aggregation induced by YwfG variants; type: cell-based, Saccharomyces cerevisiae; details: sugar 1 mM as printed
Method: Saccharomyces cerevisiae X2180-1A was cultured in YPD medium to an OD600 of 0.6.

[3] = system: legume (L)-type lectin–like module of SraP; parameters: method as in PMID 24901708; details: cited from earlier work
yeast cells = assay: Aggregation of yeast cells by lactococcal cells; type: cell-based, Saccharomyces cerevisiae; details: 1 mM
Method: Lactococcal cells were cultured in CDMG and suspended in PBS to an OD600 of 1.0.

[4] = ITC, 25°C, 100 μM YwfG28–270 in 20 mM Tris-HCl pH 7.5, D-mannose: fixed stoichiometry (N = 1)
[5] = ITC, 25°C, D-mannose: fixed stoichiometry (N = 1)
[6] = ITC, 25°C, 100 μM YwfG28–270 in 20 mM Tris-HCl pH 7.5, D-mannose: fixed stoichiometry (N = 1), read-out: KD, dissociation constant

YwfG28–270 (L-type lectin domain of YwfG), sequence (S6FKX6 entry or part of it): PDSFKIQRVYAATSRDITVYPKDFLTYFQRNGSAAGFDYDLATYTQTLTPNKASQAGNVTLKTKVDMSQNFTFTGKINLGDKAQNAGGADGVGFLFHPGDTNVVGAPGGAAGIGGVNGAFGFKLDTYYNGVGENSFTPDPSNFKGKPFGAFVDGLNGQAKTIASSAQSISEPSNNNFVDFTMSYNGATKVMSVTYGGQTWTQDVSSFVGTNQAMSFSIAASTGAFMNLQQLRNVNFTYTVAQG

C[C@H]1OC(O)[C@H](O)[C@@H](O)[C@H]1O (stereo partly drawn) [D-fucose]
Interaction with YwfG28–270 observed by ITC [1]: only combination of variant and monosaccharide that showed an interaction was YwfG28–270 with D-mannose | Interaction with YwfG28–336 observed by ITC (YwfG28–336): only combination of variant and monosaccharide that showed an interaction was YwfG28–270 with D-mannose | Interaction with YwfG28–511 observed by ITC (YwfG28–511): only combination of variant and monosaccharide that showed an interaction was YwfG28–270 with D-mannose | Interaction with MubR4 observed by ITC [2]: only combination of variant and monosaccharide that showed an interaction was YwfG28–270 with D-mannose

O=C[C@H](O)[C@@H](O)[C@@H](O)[C@H](O)CO [D-galactose]
Interaction with YwfG28–270 observed by ITC [1]: only combination of variant and monosaccharide that showed an interaction was YwfG28–270 with D-mannose | Interaction with YwfG28–336 observed by ITC (YwfG28–336): only combination of variant and monosaccharide that showed an interaction was YwfG28–270 with D-mannose | Interaction with YwfG28–511 observed by ITC (YwfG28–511): only combination of variant and monosaccharide that showed an interaction was YwfG28–270 with D-mannose | Interaction with MubR4 observed by ITC [2]: only combination of variant and monosaccharide that showed an interaction was YwfG28–270 with D-mannose

OC[C@H]1OC(O)[C@H](O)[C@@H](O)[C@@H]1O (stereo partly drawn) [D-glucose]
Interaction with YwfG28–270 observed by ITC [1]: only combination of variant and monosaccharide that showed an interaction was YwfG28–270 with D-mannose | Interaction with YwfG28–336 observed by ITC (YwfG28–336): only combination of variant and monosaccharide that showed an interaction was YwfG28–270 with D-mannose | Interaction with YwfG28–511 observed by ITC (YwfG28–511): only combination of variant and monosaccharide that showed an interaction was YwfG28–270 with D-mannose | Interaction with MubR4 observed by ITC [2]: only combination of variant and monosaccharide that showed an interaction was YwfG28–270 with D-mannose

OC[C@H]1OC(O)[C@@H](O)[C@@H](O)[C@@H]1O (stereo partly drawn) [D-mannose]
Kd [1]: 500 ± 37 µM | Interaction with YwfG28–270 observed by ITC [1]: only interaction observed; also recorded: showed an interaction | N (sites), stoichiometry [1, 4]: (1.00) sites | ΔH, enthalpy change [1, 5]: -2.098 ± 0.08359 kcal/mol | ΔS, entropy change [1, 5]: 8.07 cal/mol/deg | Interaction with YwfG28–336 observed by ITC (YwfG28–336): only combination of variant and monosaccharide that showed an interaction was YwfG28–270 with D-mannose | Interaction with YwfG28–511 observed by ITC (YwfG28–511): only combination of variant and monosaccharide that showed an interaction was YwfG28–270 with D-mannose | Interaction with MubR4 observed by ITC [2]: only combination of variant and monosaccharide that showed an interaction was YwfG28–270 with D-mannose | Inhibition of aggregation induced by YwfG28–336 (yeast X2180-1A): inhibited | Inhibition of aggregation induced by YwfG28–511 (yeast X2180-1A): not by YwfG28–270 or YwfG28–511 was inhibited

CC(=O)N[C@@H](C=O)[C@@H](O)[C@@H](O)[C@H](O)CO [GalNAc, 2-(acetylamino)-2-deoxy-D-galactose]
Interaction with YwfG28–270 observed by ITC [1]: only combination of variant and monosaccharide that showed an interaction was YwfG28–270 with D-mannose | Interaction with YwfG28–336 observed by ITC (YwfG28–336): only combination of variant and monosaccharide that showed an interaction was YwfG28–270 with D-mannose | Interaction with YwfG28–511 observed by ITC (YwfG28–511): only combination of variant and monosaccharide that showed an interaction was YwfG28–270 with D-mannose | Interaction with MubR4 observed by ITC [2]: only combination of variant and monosaccharide that showed an interaction was YwfG28–270 with D-mannose

CC(=O)N[C@@H]1[C@@H](O)[C@H](O)[C@@H](CO)O[C@@H]1O [GlcNAc, N-acetyl-D-glucosamine]
Interaction with YwfG28–270 observed by ITC [1]: only combination of variant and monosaccharide that showed an interaction was YwfG28–270 with D-mannose | Interaction with YwfG28–336 observed by ITC (YwfG28–336): only combination of variant and monosaccharide that showed an interaction was YwfG28–270 with D-mannose | Interaction with YwfG28–511 observed by ITC (YwfG28–511): only combination of variant and monosaccharide that showed an interaction was YwfG28–270 with D-mannose | Interaction with MubR4 observed by ITC [2]: only combination of variant and monosaccharide that showed an interaction was YwfG28–270 with D-mannose

CC(=O)N[C@H]1[C@H]([C@H](O)[C@H](O)CO)OC(O)(C(=O)O)C[C@@H]1O (some centres unmarked) [N-acetylneuraminic acid]
Binding to the L-type lectin–like module of SraP [3]: specifically binds

CO[C@H]1O[C@H](CO)[C@@H](O)[C@H](O)[C@@H]1O [methyl α-D-mannoside]
Interaction with YwfG28–270 observed by ITC [1]: only combination of variant and monosaccharide that showed an interaction was YwfG28–270 with D-mannose | Interaction with YwfG28–336 observed by ITC (YwfG28–336): only combination of variant and monosaccharide that showed an interaction was YwfG28–270 with D-mannose | Interaction with YwfG28–511 observed by ITC (YwfG28–511): only combination of variant and monosaccharide that showed an interaction was YwfG28–270 with D-mannose | Interaction with MubR4 observed by ITC [2]: only combination of variant and monosaccharide that showed an interaction was YwfG28–270 with D-mannose | Inhibition of aggregation induced by YwfG28–336 (yeast X2180-1A): inhibited | Inhibition of aggregation induced by YwfG28–511 (yeast X2180-1A): not by YwfG28–270 or YwfG28–511 was inhibited | Inhibition of aggregation induced by L. lactis G50 (yeast cells): inhibited

OC[C@H]1O[C@H](O[C@@H]2C(O)O[C@H](CO)[C@@H](O)[C@@H]2O)[C@@H](O)[C@@H](O)[C@@H]1O (stereo partly drawn) [α-1,2-mannobiose]
Interaction with YwfG28–270 observed by ITC [1]: bound | N (sites), stoichiometry [1, 4]: 1.19 ± 0.0104 sites | Kd [1, 6]: 34 µM and 34.4 µM | ΔH, enthalpy change [1, 5]: -5.236 ± 0.06207 kcal/mol | ΔS, entropy change [1, 5]: 2.86 cal/mol/deg | Interaction with YwfG28–336 observed by ITC (YwfG28–336): No binding | Interaction with YwfG28–511 observed by ITC (YwfG28–511): No binding | Inhibition of aggregation induced by YwfG28–336 (yeast X2180-1A): clearly inhibited | Inhibition of aggregation induced by YwfG28–511 (yeast X2180-1A): clearly inhibited

OC[C@H]1O[C@H](O[C@H]2[C@H](O)[C@@H](CO)OC(O)[C@H]2O)[C@@H](O)[C@@H](O)[C@@H]1O (stereo partly drawn) [α-1,3-mannobiose]
Interaction with YwfG28–270 observed by ITC [1]: bound | N (sites), stoichiometry [1, 4]: 0.757 ± 0.148 sites | Kd [1, 6]: 172 ± 21 µM | ΔH, enthalpy change [1, 5]: -6.073 ± 1.387 kcal/mol | ΔS, entropy change [1, 5]: −3.15 cal/mol/deg | Interaction with YwfG28–336 observed by ITC (YwfG28–336): No binding | Interaction with YwfG28–511 observed by ITC (YwfG28–511): No binding | Inhibition of aggregation induced by YwfG28–336 (yeast X2180-1A): weakly inhibited | Inhibition of aggregation induced by YwfG28–511 (yeast X2180-1A): weakly inhibited

OC[C@H]1O[C@H](O[C@H]2[C@H](O)[C@H](O)C(O)O[C@@H]2CO)[C@@H](O)[C@@H](O)[C@@H]1O (stereo partly drawn) [α-1,4-mannobiose]
Interaction with YwfG28–270 observed by ITC [1]: bound | N (sites), stoichiometry [1, 4]: 1.82 ± 0.171 sites | Kd [1, 6]: 328 ± 91 µM | ΔH, enthalpy change [1, 5]: -2.206 ± 0.3097 kcal/mol | ΔS, entropy change [1, 5]: 9.55 cal/mol/deg | Interaction with YwfG28–336 observed by ITC (YwfG28–336): No binding | Interaction with YwfG28–511 observed by ITC (YwfG28–511): No binding | Inhibition of aggregation induced by YwfG28–336 (yeast X2180-1A): weakly inhibited | Inhibition of aggregation induced by YwfG28–511 (yeast X2180-1A): weakly inhibited

OC[C@H]1O[C@H](OC[C@H]2O[C@H](O)[C@@H](O)[C@@H](O)[C@@H]2O)[C@@H](O)[C@@H](O)[C@@H]1O [α-1,6-mannobiose]
Interaction with YwfG28–270 observed by ITC [1]: bound | N (sites), stoichiometry [1, 4]: 1.21 ± 0.0839 sites | Kd [1, 6]: 210 ± 13 µM | ΔH, enthalpy change [1, 5]: -4.235 ± 0.3728 kcal/mol | ΔS, entropy change [1, 5]: 2.62 cal/mol/deg | Interaction with YwfG28–336 observed by ITC (YwfG28–336): No binding | Interaction with YwfG28–511 observed by ITC (YwfG28–511): No binding | Inhibition of aggregation induced by YwfG28–336 (yeast X2180-1A): weakly inhibited | Inhibition of aggregation induced by YwfG28–511 (yeast X2180-1A): weakly inhibited

Reference: paper PMC9815576, “Cell-surface protein YwfG of Lactococcus lactis binds to α-1,2-linked mannose” (PLOS ONE, 2023)
